Assay results taken from ChEMBL document CHEMBL1201862, “PubChem BioAssay data set” (2004).
The source made the active and inactive calls. Cut-off read from the data, not from the text of the source, for most assays here: actives have a measured EC50 and inactives only a lower limit.

Tests used:
[1] = Luminescence Cell-Based Dose Response HTS to Identify Activators of Luciferase Translation or Activity in H4 […] Cells. [Related pubchem assays: 1829 (Project Summary), 1814 (Primary HTS)]; format: functional
[2] = Luminescence Cell-Based Dose Confirmation HTS to Identify Activators of 5'UTR Stem-Loop Driven Alpha-Synuclein mRNA Translation in H4 Neuroglioblastoma Cells. [Related pubchem assays: 1829 (Project Summary), 1814 (Primary HTS)]; format: functional
[3] = tested on: H4; assay: Luminescence Cell-Based Dose Response HTS to Identify Activators of 5'UTR Stem-Loop Driven Prion Protein mRNA Translation in H4 Neuroglioblastoma Cells. [Related pubchem assays: 1829 (Project Summary), 1814 (Primary HTS)]; format: functional; conditions: Homo sapiens
[4] = target: T1, Corticotropin-releasing factor receptor 2/Corticotropin-releasing factor-binding protein (Homo sapiens, UniProt P24387+Q13324); assay: activators of CRF receptor 2 with binding protein – uHTS hits, confirmation (AID 602473); format: functional; conditions: read-out: EC50_Mean
T1 sequence (Q13324 whole entry): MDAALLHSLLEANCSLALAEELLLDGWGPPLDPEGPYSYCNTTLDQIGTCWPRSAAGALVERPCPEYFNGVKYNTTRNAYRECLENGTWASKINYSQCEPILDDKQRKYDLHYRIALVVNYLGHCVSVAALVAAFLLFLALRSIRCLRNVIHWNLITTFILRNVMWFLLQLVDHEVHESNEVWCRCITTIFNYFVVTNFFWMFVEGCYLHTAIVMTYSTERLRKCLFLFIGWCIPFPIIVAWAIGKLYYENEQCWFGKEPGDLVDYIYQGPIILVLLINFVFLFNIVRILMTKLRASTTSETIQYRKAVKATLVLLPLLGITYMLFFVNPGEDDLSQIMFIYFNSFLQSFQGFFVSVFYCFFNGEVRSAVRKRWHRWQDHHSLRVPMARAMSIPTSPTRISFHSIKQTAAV
T1 sequence (P24387 whole entry): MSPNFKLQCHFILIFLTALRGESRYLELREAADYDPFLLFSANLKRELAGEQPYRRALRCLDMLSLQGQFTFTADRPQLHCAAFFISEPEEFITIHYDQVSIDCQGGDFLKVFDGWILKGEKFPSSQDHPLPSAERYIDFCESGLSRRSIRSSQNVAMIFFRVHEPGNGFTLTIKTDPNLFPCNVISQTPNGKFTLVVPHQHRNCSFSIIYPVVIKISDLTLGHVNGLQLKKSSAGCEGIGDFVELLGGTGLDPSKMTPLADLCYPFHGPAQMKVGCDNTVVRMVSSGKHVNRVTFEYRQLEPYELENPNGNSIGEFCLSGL

[5] = target: T1, Corticotropin-releasing factor receptor 2/Corticotropin-releasing factor-binding protein; assay: Dose Response confirmation of uHTS hits for small molecule antagonists of the CRF-binding protein and CRF-R2 receptor complex.; format: functional; conditions: read-out: IC50_Mean
[6] = NIH3T3 cell viability loss – ATP luminescence, mouse fibroblasts, counter-screen, dose response (AID 2010); format: functional, cell-based;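 note: cells exposed to compound for about 90 hours before reading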
[7] = Trypanosoma cruzi growth suppression in host cells – NIH3T3 host cells, beta-gal luminescence, confirmation (AID 2044); format: functional, cell-based;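 note: intracellular parasites grown in NIH/3T3 mouse fibroblasts as host cells; luminescent beta-galactosidase reporter signal from transgenic T. cruzi replicating inside host cells; inhibitors lower the luminescence signal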
[8] = target: Paired box protein Pax-8 (Homo sapiens, UniProt Q06710); assay: PAX8 transcriptional activity inhibition in RMG-I – RMG-I cells, luciferase, cherry-pick, dose response (AID 687027); format: functional, cell-based;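 note: luciferase reporter driven by Pax8 target thyroperoxidase promoter measured by SteadyGlo luminescence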
Paired box protein Pax-8, sequence (Q06710 whole entry): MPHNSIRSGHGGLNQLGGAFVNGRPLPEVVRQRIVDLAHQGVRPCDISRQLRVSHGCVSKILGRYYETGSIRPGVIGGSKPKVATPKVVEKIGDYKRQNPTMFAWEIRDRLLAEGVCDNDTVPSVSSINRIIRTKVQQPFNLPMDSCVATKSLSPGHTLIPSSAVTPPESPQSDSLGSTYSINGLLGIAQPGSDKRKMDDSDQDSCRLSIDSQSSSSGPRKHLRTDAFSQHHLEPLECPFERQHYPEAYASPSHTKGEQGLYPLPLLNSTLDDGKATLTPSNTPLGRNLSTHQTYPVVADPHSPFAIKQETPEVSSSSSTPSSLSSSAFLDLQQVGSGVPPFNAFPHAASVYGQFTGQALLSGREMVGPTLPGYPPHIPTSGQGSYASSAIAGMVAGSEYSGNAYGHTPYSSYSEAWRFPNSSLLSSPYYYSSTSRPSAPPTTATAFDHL

[9] = loss of viability in HepG2 cells – cell-based, CellTiter-Glo, cherry-picked, cytotoxicity control for Shn3 inhibitor project, dose response (AID 624134); format: functional
[10] = reduction of Shn3 3'UTR-driven luciferase in osteoblasts – cell-based, Clone20 osteoblasts, firefly luciferase, cherry-picked, dose response (AID 624132); format: functional;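 note: firefly luciferase luminescence from reporter carrying the Shn3 3'UTR in osteoblasts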
[11] = non-specific 3'UTR reporter inhibition in Clone20-Shn3RL – cell-based, Renilla luciferase, cherry-picked, counter-screen for Shn3 inhibitor project, dose response (AID 624133); format: functional

For `c1ccc2c(c1)oc1c(NCC3CCCO3)ncnc12` (centres undefined), the EC50 [1] was 19 µM (active), the EC50 [2] was 8.39 µM (active) and the EC50 [3] was 7.09 µM (active).

For `Cc1ccsc1C1Nc2ccccc2-c2nc3ccccc3n21` (centres undefined), the EC50 [1] was 60.7 µM (active), the EC50 [2] was 24.3 µM (active) and the EC50 [3] was 26.1 µM (active).

In the case of `NC(Cc1ccccc1Sc1ccccc1)=NO`, the EC50 [4] is reported as > 53 µM (inactive) and the IC50 [5] is reported as > 47.1 µM (inactive).

In the case of `CN(Cc1cccs1)C(=O)Cc1csc(-c2ccccc2)n1`, the EC50 [1] is reported as 10.1 µM (active), the EC50 [2] is reported as 32 µM (active) and the EC50 [3] is reported as 15.9 µM (active).

In the case of `COc1cc(CCC(=O)NC2(C)CCS(=O)(=O)C2)cc(OC)c1OC` (centres undefined), the EC50 [4] is reported as > 53 µM (inactive) and the IC50 [5] is reported as > 47.1 µM (inactive).

In the case of `COc1ccc(CCN2CCCC(CN(C)C(=O)c3cc(C)oc3C)C2)cc1` (centres undefined), the EC50 [1] is reported as 31.9 µM (active), the EC50 [6] is reported as > 60 µM (not active) and the EC50 [2] is reported as 41.5 µM (active). The EC50 [7] was 0.149 µM (active) and the EC50 [3] was 32.7 µM (active).

In the case of `COc1cc2c(c(OC)c1OC)-c1ccc(SC)c(=O)cc1C(NC=O)CC2` (centres undefined), the AC50 [8] is reported as < 0.26 µM (active).

With `COc1ccc(S(=O)(=O)N2CCOCC2)cc1NC(=O)CC1CC2CCC1C2` (centres undefined) the EC50 [4] was > 53 µM (inactive) and the IC50 [5] was > 47.1 µM (inactive).

For `COc1ccc2ccccc2c1CNCCCN1CCOCC1`, the EC50 [4] was > 53 µM (inactive) and the IC50 [5] was > 47.1 µM (inactive).

In the case of `O=C(NCc1cc(C(F)(F)F)ccc1Cl)c1cccc2c1C(=O)c1ccc(N3CCCCC3)cc1S2(=O)=O`, the EC50 [4] is reported as 6.26 µM (active).

For `COc1cccc(CNC(=O)C2CCC(=O)N(CC3CCCCC3)C2)c1OC` (centres undefined), the EC50 [4] was > 53 µM (inactive) and the IC50 [5] was > 47.1 µM (inactive).

For `COc1ccc(CC(N)c2csc(NC(=O)Nc3cccc(C(F)(F)F)c3)n2)cc1` (centres undefined), the AC50 [9] was 11 µM (active), the AC50 [10] was 8.4 µM (active) and the AC50 [11] was 7.68 µM (active).

With `Cc1ccc(-c2nn(-c3ccccc3)cc2/C=N/n2c(S)nnc2-c2ccncc2)cc1` the EC50 [1] was 34.3 µM (active), the EC50 [2] was > 120 µM (not active) and the EC50 [3] was 34.1 µM (active).

In the case of `C[C@@H]1CN([C@@H](C)CO)C(=O)c2cc(NC(=O)Nc3cccc4ccccc34)ccc2O[C@@H]1CN(C)Cc1ccc2c(c1)OCO2`, the AC50 [8] is reported as 18.5 µM (active).

For `C[C@@H]1CCCCO[C@H](CN(C)C(=O)Nc2ccc(C(F)(F)F)cc2)[C@@H](C)CN([C@@H](C)CO)C(=O)c2cc(NS(=O)(=O)c3ccccc3)ccc2O1`, the AC50 [8] was 3.24 µM (active).
